Source: patent US8969312B2, “Low side effect pharmaceutical composition containing antituberculosis drugs” (priority 2011, dated 2015)

Legend:
[1] = molecular target: cytochrome P450 2E1 (CYP2E1) (Homo sapiens, UniProt P05181); experiment: CYP2E1 High Throughput Inhibitor Screening Kit, cDNA synthesized microsomal CYP2E1 (MFC to HFC); settings: for Minimum Effective Dose: Table 3, minimum tested concentration (mg/L) × volume of human liver and intestine (3L)
Description: CYP2E1 High Throughput Inhibitor Screening Kit (BD Bioscience, USA) was used to screen the cytochrome P450 (CYP2E1) inhibitors from 22 Chinese medicine guiding drugs and 10 excipients and microsomal cytochrome P450 (CYP2E1) was synthesized from cDNA (BD Bioscience, USA). The principle of the screening kit is to measure the percentage of CYP2E inhibition, after adding the test sample to substrate MFC (7-Methoxy-4-trifluoromethyl coumarin) and cytochrome P450 (CYP2E1), by measuring the synthesis of standard CYP2E1 metabolite (HFC, 7-Hydroxy-4-trifluoromethyl coumarin) and use control HFC as baseline.
a. 149 μl NADPH-Cofactor Mix and 1 μl 20 mM DDTC were added to the #1 well in a 96-well plate and mixed thoroughly,
b. Add 100 μl Cofactor/acetonitrile mix to #2 to #12 wells, and well #1 to #8 are positive control. Well #9 and 10 are control and well #11 and #12 are blank,
c. […] Preparation of Experimental Groups: a. […] Transfer 50 μl from well #1 and #2 and added to well #3 and mixed thoroughly (triplicate for each sample), 3. Initiation and Termination of the Reaction: a. The 96-well plate was incubated at 37° C. for […], b. 100 μl of Enzyme/Substrate Mix was added to every well and mixed thoroughly except the blank wells, c. The 96-well plate was incubated at 37° C. for 40 min, d. 75 μl Stop Solution was added to every well and mixed thoroughly, e. Immediately add 100 μl Enzyme/Substrate Mix to blank wells and mixed thoroughly, f. Measure with a Fluoroskan Ascent FL (Thermo Electron Corporation, Finland) with excitation at 405 nm and emission at 538 nm, 4. The fluorescence was transverse into CYP 2E1 metabolite standard (HFC) concentration (pmol) and the percentage (%) of CYP 2E1 inhibition was calculated using control as baseline by following equation: […]

amidase = experiment: Mouse liver microsomal amidase, isoniazid to isonicotinic acid; format: biochemical
Description: Mouse liver microsomes were used as the source of amidase, and isoniazid was used as the amidase metabolism drugs. quantitative isoniazid was catalyzed into metabolites isonicotinic acid (INA) by amidase, and was used as the index for measurement of the amidase activity for establishment of the platform for screening in vitro amidase activity inhibitors. The HPLC system includes a Shimadzu the LC-LOAD pump, 1 Shimadzu system control and a Shimadzu autosampler (Shimadzu Scientific Instrument, Japan). A C18 column (particle size 5 μm, inner diameter of 50×4.6 mm, 25 cm) containing 70% methanol and 30% ammonium formate (50 mM, pH=2.5) of the mobile phase for HPLC separation, and the experimental steps are outlined as follows:
(2) An aliquot of 150 μL mouse liver microsomal solution was added to 100 μL isoniazid solution in 35 μL 67 mM potassium phosphate buffer solution ([…], pH=7) with a final concentration at 3 mM, and then mixed thoroughly with 15 μL amidase inhibitor (deionized water was added in the control group). (3) Incubation at 37° C. water bath for 30 minutes. (4) An aliquot of 300 μL acetonitrile (ACN) was added and mixed thoroughly, and incubated for 6 minutes. (5) An aliquot of 30 μL perchloric acid was then mixed and incubated for 6 minutes. (6) The mixture was centrifuged at 13000 g for 6 minutes. (7) After centrifugation, 100 μL of the supernatant was injected into HPLC. (8) Methanol ammonium formate (50 mM, pH=2.5)=70:30 (V/V) was selected as the mobile phase, and the flow rate was controlled at […] and detected at 270 nm UV. […] The amidase inhibition % was then calculated using the following formula: […]

[2] = molecular target: human liver microsomal cytochrome P450 2E1 (CYP2E1) (Homo sapiens, UniProt P05181); experiment: Human liver microsomal CYP2E1, chlorzoxazone 6-hydroxylation;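 further: chlorzoxazone added as substrate, 6-hydroxychlorzoxazone formation quantified by LC/MS/MS after 30 min at 37 °C with NADP+ regenerating system, compared against solvent control without test sample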
Method: (§3) Microsomes prepared from human liver were used to extract cytochrome P450 2E1 (CYP2E1) and CYP2E1 inhibitors were screened from 39 Chinese medicine guiding drugs and 10 excipients. Chlorzoxazone hydroxylation is a reaction catalyzed primarily by CYP2E1 in liver. The extracted human liver microsomal cytochrome P450 2E1 (CYP2E1) was mixed with its substrate, Chlorzoxazone, and test sample was then added Inhibition of CYP2E1 activity was calculated by measuring CYP2E1 standard metabolite, 6-OH-CZX (6-Hydroxy-Chlorzoxazone), and compared with control 6-OH-CZX.
(§4) After incubation, 16 mM Chlorzoxazone and test samples were added to experimental groups; methanol:sterilized water at 1:1 ratio was added to control groups and DDTC was added to positive control groups,
(§5) Finally, cofactor 1 mM NADP^+, 10 mM G6P and 2 IU G6PD were added and reaction mixtures were transferred to pre-incubation 37° C. water bath for 1 mM and activity was measured after 30 min of reaction
(§6) At the end of reaction, 500 μl acetonitrile was added to stop the reaction followed by 5 g/mL 4-hydroxy-tobutamide after 1 mM incubation. The mixture was then centrifuged and 20 L of supernatant was diluted ten times with methanol/sterilized water and 5 L was used for LC/MS/MS analysis. […] The inhibition of CYP2E1 was then calculated by the following equation:

[3] = test system: Male SD (Sprague-Dawley) rats; experiment: Rat study of PZA combined with BNPP (AST, ALT, histology, GSP); format: in vivo
Method: (§1) The body weight of the rats was monitored throughout the experiment. Rats were anesthetized with sodium pentobarbital intraperitoneally (i.p.) at the dose of 50 mg/kg and galactose was injected intravenously through a polyethylene catheter positioned in internal jugular vein. The catheter was positioned by cut-down technique and its end was embedded under the skin behind the neck. After the surgery, the rats were fasted overnight during the recovery period (about 16 hours) with unrestricted water access.
Animals were randomized into one of five groups, each involving three treatments. The first treatment involved either a BNPP injection of 50 mg/kg or a BNPP vehicle (VEH1) injection (saline). […] The second treatment involved injections of either 500 mg/kg PZA or PZA vehicle (VEH2, saline). PZA was dissolved in saline and i.p. injected at a volume of […]. The first treatment (BNPP or VEH1) was administered 15 minutes before the […].
2. PZA group (PZA, n=10): continuously injections of PZA, VEH1 and VEH2 intraperitoneally once every day for 49 days;
3. BNPP-PZA group (BNPP-PZA, n=10): continuously injections of BNPP, PZA and VEH2 intraperitoneally once every day for 49 days;
(§2) After the rats were sacrificed, the livers were subjected to histology analysis.
All rats were subjected to GSP tests.

129/sv mice = experiment: Mouse study of INH/RIF with oral Kaempferol, Mannitol, Saccharin, Sucralose, Dicalcium phosphate or Crospovidone; format: in vivo; settings: 3 weeks, in words
Description: Animals were randomized into one of thirteen groups, each involving three treatments. […].
All mice were subjected to GSP test.

CYP2E1 = CYP2E1 (Homo sapiens, UniProt P05181); experiment: Human liver microsomal CYP2E1, chlorzoxazone 6-hydroxylation; settings: human, human liver microsomes, pH 7.4, probe Chlorzoxazone;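 further: chlorzoxazone added as substrate, 6-hydroxychlorzoxazone formation quantified by LC/MS/MS after 30 min at 37 °C with NADP+ regenerating system, compared against solvent control without test sample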
Method: as §3, §4, §5, §6

[4] = test system: Male SD (Sprague-Dawley) rats; experiment: Rat study of INH combined with DSF and/or BNPP (AST, ALT, histology, 8-iso-PGF2α, GSP, GEC); format: in vivo
Method: as §1, with “Galactose” for “galactose”
Animals were randomized into one of five groups, each involving three treatments. The first treatment involved either a BNPP injection of 25 mg/kg or a BNPP vehicle (VEH1) injection (saline). […] The second treatment involved injections of either 100 mg/kg DSF or DSF vehicle (VEH2, corn oil). DSF was dissolved in corn oil and i.p. injected at a volume of […]. The third treatment involved injections of INH (25 mg/kg) or INH vehicle (VEH3, saline). INH was dissolved in saline (0.9% NaCl), and i.p. injected at a volume of […]. The first treatment (BNPP or VEH1) was administered 30 minutes before the third treatment (INH or VEH3), and the second treatment (DSF or VEH2) was administered 15 minutes before the third treatment (INH or VEH3).
Galactose elimination capacity (GEC) test was performed 16 hours […] at the end of 21 days-treatment to measure the liver function.
After 21 days treatment, the rats were sacrificed with ether and blood samples collected in test tubes containing EDTA by dorsal aorta extract. The blood samples were centrifuged at 13,000 g for 15 min at 4° C. and plasma was aliquot into eppendorf tubes and stored at −80° C.
as §2
All isomers of PGF2α were dissolved or diluted in adequate amount of ethanol and after aliquot, stored at −70° C. As an internal standard, 10 ng of 8-iso-PGF2α-d4 was mixed with 0.5 ml of plasma in a glass tube and was then purified by a C18 Solid-Phase Extraction column (J. T. Baker, MA, USA). Sample eluants were evaporated under a stream of nitrogen and re-dissolved in 50 μl acetonitrile:water (15:85 v/v) solution followed by vortex for 30 seconds and 10 μl extract was further analyzed with a LC/MS/MS system.
Shimadzu system control and one Shimadzu autosampler (Shimadzu, Japan). HPLC purification of the extract by C18 column (mesh size 5-μm, diameter 50×2.1 mm) using 2 mM ammonium acetate/acetonitrile, ACN gradient as mobile phase (t=0 mM, 15% ACN; t=6 mM, 70% ACN; t=7 mM, 90% ACN; t=8 mM, 90% ACN; t=8.5 min, 15% ACN). […] Such HPLC system was connected to a triple stage quadrupole mass spectrometer (API3000, Applied Biosystem, Foster City, Calif., USA) and is equipped with a Turbo Ion Spray ionization source, and uses negative electrospray for ionization. Such spectrophotometer uses diffusion of standard solution of 200 ng/ml 8-iso-PGF2α or 8-iso-PGF2α-d4 to optimize the mode for multiple reaction monitoring (MRM).
All rats were subjected to GSP and GEC tests.

[5] = Table 6, minimum tested concentration (mg/L) × volume of human liver and intestine (3 L)
[6] = i.p. daily 49 days, PZA 500 mg/kg, BNPP 50 mg/kg

Sequence of human liver microsomal cytochrome P450 2E1 (CYP2E1) (P05181 whole entry): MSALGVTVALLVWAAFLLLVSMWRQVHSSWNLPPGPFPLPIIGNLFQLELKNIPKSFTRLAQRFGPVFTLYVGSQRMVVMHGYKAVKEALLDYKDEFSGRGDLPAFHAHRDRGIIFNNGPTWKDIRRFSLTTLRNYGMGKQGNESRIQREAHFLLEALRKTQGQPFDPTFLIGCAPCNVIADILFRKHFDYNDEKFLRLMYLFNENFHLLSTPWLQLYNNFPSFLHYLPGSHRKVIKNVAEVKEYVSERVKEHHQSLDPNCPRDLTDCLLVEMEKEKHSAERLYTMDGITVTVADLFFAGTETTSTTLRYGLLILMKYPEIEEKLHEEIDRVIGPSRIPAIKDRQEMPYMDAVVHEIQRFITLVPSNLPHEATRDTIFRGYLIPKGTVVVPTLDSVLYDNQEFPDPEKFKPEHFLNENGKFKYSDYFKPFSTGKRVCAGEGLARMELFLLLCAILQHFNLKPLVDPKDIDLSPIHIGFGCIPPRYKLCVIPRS
Sequence of CYP2E1 (P05181 whole entry): as above
Sequence of cytochrome P450 2E1 (CYP2E1) (P05181 whole entry): as above

| SMILES | Minimum Effective Dose [1] | Amidase inhibition (amidase; 1 uM) | Amidase inhibition (amidase; 10 uM) | Amidase inhibition (amidase; 100 uM) | Minimum Effective Dose [2, 5] | further results |
| --- | --- | --- | --- | --- | --- | --- |
| O=C(O)c1cc(O)c(O)c(O)c1 [gallic acid] | 9 mg | 12.0 ± 5.5% | 20.0 ± 5.1% | −20.2 ± 26.5% | 9 mg |  |
| NC(=O)c1cnccn1 [PZA, pyrazinamide] |  |  |  |  |  | plasma ALT activities [3, 6]: 91±11 IU/L; plasma AST activities [3, 6]: 179±10 IU/L; liver histopathology ([3]; seven weeks, in words): showed hepatocellular damage |
| COc1ccc([C@@H]2CC(=O)c3c(O)cc(O)cc3O2)cc1O [Hesperetin] | 33 mg | −40.5 ± 24.8% | 5.4 ± 2.5% | 19.0 ± 3.6% | 17 mg |  |
| O=C(CCc1ccc(O)cc1)c1c(O)cc(O)cc1O [Phloretin] | 15 mg | 16.5 ± 14.3% | 9.8 ± 5.4% | 29.9 ± 8.1% | 15 mg |  |
| CC(Cc1ccc(O)c(O)c1)C(C)Cc1ccc(O)c(O)c1 (stereo not shown) [Nordihydroguaiaretic acid] | 17 mg |  |  |  | 17 mg |  |
| O=C1NS(=O)(=O)c2ccccc21 [Saccharin] |  |  |  |  |  | GSP values over treatment time (129/sv mice): remained constant; inhibition at 30 min, 16.5 µM (CYP2E1): 29.4 ± 2.7%; inhibition at 30 min, 33 µM (CYP2E1): 51.2 ± 0.9%; inhibition at 30 min, 66 µM (CYP2E1): 78.5 ± 2.1%; Minimum Effective Dose ([2]; Table 7): 10 mg |
| O=C1C[C@@H](c2ccc(O)cc2)Oc2cc(O)cc(O)c21 [Narigenin] | 9 mg |  |  |  | 9 mg |  |
| O=c1ccc2ccc(O)cc2o1 [Umbelliferone] | 9 mg | 24.1 ± 11.6% | −1.0 ± 13.2% | 33.5 ± 8.2% |  |  |
| Oc1cc(O)c2c(c1)O[C@H](c1ccc(O)c(O)c1)[C@@H](O)C2 [(+)-Catechin] | 16 mg | −2.1 ± 1.1% | −11.8 ± 20.2% | 1.3 ± 6.3% |  | Inhibition of CYP 2E1 ([1]; 16.5 μM): 41.53%; Inhibition of CYP 2E1 ([1]; 66 μM): 16.45% |
| COc1c(O)cc2oc(Oc3ccc(O)cc3)cc(=O)c2c1O [Capillarisin] | 17 mg | −4.1 ± 8.1% | 18.2 ± 3.7% | 45.7 ± 4.2% | 17 mg | Inhibition of CYP 2E1 ([1]; 16.5 μM): 49.05%; Inhibition of CYP 2E1 ([1]; 66 μM): 76.12%; Inhibition of CYP 2E1 ([2]; 16.5 μM): 32.89 ± 2.46%; Inhibition of CYP 2E1 ([2]; 33 μM): 46.22 ± 2.65%; Inhibition of CYP 2E1 ([2]; 66 μM): 57.31 ± 1.31% |
| O=C1c2c(O)cc(O)cc2O[C@H](c2ccc(O)c(O)c2)[C@H]1O [(+)-Taxifolin] | 17 mg | 36.8 ± 11.5% | 32.2 ± 5.8% | 36.4 ± 3.4% |  |  |
| O=C(O)/C=C/c1ccccc1 [trans-Cinnamic acid] | 8 mg | −11.9 ± 2.3% | −1.4 ± 0.6% | 12.6 ± 1.7% |  |  |
| NNC(=O)c1ccncc1 [INH, isoniazid] |  |  |  |  |  | GEC values ([4]; 21 days): 3.4±0.6 mg/min·kg; plasma ALT activities ([4]; i.p. once daily 21 days): 52±3 IU/L; plasma AST activities ([4]; i.p. once daily 21 days): 129±10 IU/L; plasma concentrations of 8-iso-PGF2α ([4]; i.p. once daily 21 days): 0.151 ± 0.026 ng/mL; liver histopathology ([4]; three weeks, H&E, EM, in words): showed hepatocellular damage |
| OC[C@H]1O[C@H](O[C@]2(CCl)O[C@H](CCl)[C@@H](O)[C@@H]2O)[C@H](O)[C@@H](O)[C@H]1Cl [Sucralose] |  |  |  |  |  | GSP values over treatment time (129/sv mice): remained constant; inhibition at 30 min, 16.5 µM (CYP2E1): 37.1 ± 2.8%; inhibition at 30 min, 33 µM (CYP2E1): 45.8 ± 4%; inhibition at 30 min, 66 µM (CYP2E1): 55.8 ± 2%; Minimum Effective Dose ([2]; Table 7): 22 mg |
| CCCCC[C@H](O)CC(=O)CCc1ccc(O)c(OC)c1 [6-Gingerol] | 16 mg | −8.2 ± 9.0% | 0.5 ± 0.7% | 22.6 ± 3.4% | 16 mg |  |
